Consider 13 molecules from ChEMBL document CHEMBL4834463, “Synthesis and fungicidal activity of novel 2-(2-alkylthio-6-phenylpyrimidin-4-yl)-1H-benzimidazoles” (Bioorg Med Chem Lett, 2021).

Structures are written as SMILES. Converted amounts (≈) assume the structure as drawn.

Broadly, the EC50 is the concentration needed to bring the measured effect to its halfway point.

One assay deals with Botrytis cinerea. The assay can be described thus: Antifungal activity against Botrytis cinerea assessed as inhibition of mycelia growth incubated for 48 hrs. In kind it is functional, organism-based.
A further assay concerns Sclerotinia sclerotiorum. The assay can be described thus: Antifungal activity against Sclerotinia sclerotiorum assessed as inhibition of mycelia growth incubated for 48 hrs. In kind it is functional, organism-based.

For `CCCCSc1nc(-c2ccccc2)cc(-c2nc3ccccc3[nH]2)n1`, the EC50 in the assay with Botrytis cinerea came out at 0.34 µg/mL (≈ 0.943 µM); with Sclerotinia sclerotiorum, 22.3 µg/mL (≈ 61.9 µM).

Consider `Clc1ccc(-c2cc(-c3nc4ccccc4[nH]3)nc(SCc3ccccc3)n2)cc1`, for which the figures for the EC50 in the assay with Botrytis cinerea and in the assay with Sclerotinia sclerotiorum were 0.2 µg/mL (≈ 0.466 µM) and 14 µg/mL (≈ 32.6 µM), respectively.

As to `c1ccc(CSc2nc(-c3ccccc3)cc(-c3nc4ccccc4[nH]3)n2)cc1`, the figures for the EC50 in the assay with Botrytis cinerea and in the assay on Sclerotinia sclerotiorum were 7.02 µg/mL (≈ 17.8 µM) and 8.95 µg/mL (≈ 22.7 µM), respectively.

On to `COc1ccc(-c2cc(-c3nc4ccccc4[nH]3)nc(SC)n2)cc1`, for which the 50% effective concentration (EC50) came out at 0.41 µg/mL (≈ 1.18 µM) with Botrytis cinerea and 23.5 µg/mL (≈ 67.4 µM) in the assay with Sclerotinia sclerotiorum.

As to `CCCCSc1nc(-c2ccc(Cl)cc2)cc(-c2nc3ccccc3[nH]2)n1`, the EC50 stood at 10.1 µg/mL (≈ 25.6 µM) in the assay with Botrytis cinerea and 20.6 µg/mL (≈ 52.1 µM) in the assay on Sclerotinia sclerotiorum.

In the case of `Fc1ccc(-c2cc(-c3nc4ccccc4[nH]3)nc(SCc3ccccc3)n2)cc1`, the results for the EC50 in the assay on Botrytis cinerea and with Sclerotinia sclerotiorum were 0.14 µg/mL (≈ 0.339 µM) and 4.65 µg/mL (≈ 11.3 µM), respectively.

Consider `CCCCSc1nc(-c2ccc(F)cc2)cc(-c2nc3ccccc3[nH]2)n1`, for which the EC50 with Botrytis cinerea was 0.16 µg/mL (≈ 0.423 µM); in the assay with Sclerotinia sclerotiorum, 6.72 µg/mL (≈ 17.8 µM).

With `COC(=O)Nc1nc2ccccc2[nH]1` [CARBENDAZIM], the results for the EC50 in the assay on Botrytis cinerea and in the assay with Sclerotinia sclerotiorum were 0.21 µg/mL (≈ 1.1 µM) and 13.3 µg/mL (≈ 69.7 µM), respectively.

As for `CSc1nc(-c2ccc(Cl)cc2)cc(-c2nc3ccccc3[nH]2)n1`, the results for the concentration for a half-maximal effect (EC50) with Botrytis cinerea and in the assay with Sclerotinia sclerotiorum were 1.15 µg/mL (≈ 3.26 µM) and 17.3 µg/mL (≈ 49 µM), respectively.

In the case of `CSc1nc(-c2ccc(F)cc2)cc(-c2nc3ccccc3[nH]2)n1`, the EC50 in the assay with Botrytis cinerea was 0.95 µg/mL (≈ 2.82 µM); with Sclerotinia sclerotiorum it was 16.6 µg/mL (≈ 49.5 µM).

In the case of `COc1ccc(-c2cc(-c3nc4ccccc4[nH]3)nc(SCc3ccccc3)n2)cc1`, the concentration for a half-maximal effect (EC50) came to 0.28 µg/mL (≈ 0.66 µM) with Botrytis cinerea and 10.2 µg/mL (≈ 24 µM) in the assay on Sclerotinia sclerotiorum.

Turning to `CSc1nc(-c2ccccc2)cc(-c2nc3ccccc3[nH]2)n1`, the EC50 in the assay with Botrytis cinerea is 0.15 µg/mL (≈ 0.471 µM); in the assay with Sclerotinia sclerotiorum, 45 µg/mL (≈ 141 µM).

For `CCCCSc1nc(-c2ccc(OC)cc2)cc(-c2nc3ccccc3[nH]2)n1`, the concentration for a half-maximal effect (EC50) in the assay with Botrytis cinerea amounted to 2.45 µg/mL (≈ 6.27 µM); in the assay on Sclerotinia sclerotiorum it was 16.4 µg/mL (≈ 41.9 µM).
